Data published in patent US12344862B2, “Human intestinal epithelium model and method for preparing same” (KOREA RESEARCH INSTITUTE OF BIOSCIENCE AND BIOTECHNOLOGY, priority 2020, dated 2025).

What was measured:
[1] = tested on: Wnt pathway and the Notch pathway; assay: qPCR of ATOH1, HES1, AXIN2, CTNNB1 during differentiation of hIEC progenitors into functional hIECs; type: cell-based, human; details: 2 μM Wnt-059 and 1 mM valproic acid together in hIEC differentiation medium 2; functional vs immature hIECs; FIG. 7
Description: To identify effects of Wnt-059 and valproic acid, which belong to the components of the hIEC differentiation medium 2 in Example 2, on the Wnt pathway and the Notch pathway during differentiation of hIEC progenitors into functional hIECs, expression levels of ATOH1, HES1, AXN2, and CTNNB1 genes in human small intestine (hSI) tissue, immature hIECs, and functional hIECs were checked through qPCR analysis. Here, inactivation of the Wnt pathway and activation of the Notch pathway inhibited differentiation of ISCs into secretory cells. qPCR was performed in the same manner as in Experimental Example 1, and the primers used are shown in Table 3 below.

in vitro = in vitro ADME, human; details: human
Method: (§1) The cells were prepared in the same manner as in Experimental Example 6.1. The functional hIECs and the Caco-2 cell line were washed 3 times with a transport buffer. […] The concentration of each compound in the sample was analyzed using LC-MS/MS. The apparent permeability coefficient was calculated according to the following equation. [formula] In the equation, dQ/dt, A, and C0 represent a transport rate, a surface area of the insert, and an initial concentration of the compound in the donor compartment, respectively. Chromatographic quantification of each compound was performed using an LC-tandem mass spectrometry system equipped with Shimadzu Prominence UPLC system (Shimadzu, Kyoto, Japan) and API 2000 QTRAP mass spectrometer (Applied Biosystems, Foster City, CA, USA). […] Then, an aliquot (10 μl) of the supernatant was injected directly into the LC-MS/MS system. Separation was performed using a Waters XTerra MS C18 column (2.1×50 mm, 5 μm, Milford, MA, USA) with a concentration gradient of 0.1% formic acid in acetonitrile and 0.1% formic acid in water at a flow rate of 0.4 ml/min. Transitions were made as follows to detect the analyte: […]

Caco-2 cell line = assay: in vitro; type: in vitro ADME, human
Method: as §1

functional hIECs = assay: in vitro; type: in vitro ADME, human; details: Caco-2
Method: as §1

hPSCs = assay: qPCR of intestinal epithelial marker genes during differentiation of hPSCs into hIEC progenitors; type: cell-based, human; details: component of hIEC differentiation medium 1; FIG. 2
Method: In Example 1, to identify effects, on differentiation of the hPSCs into the hIEC progenitors, of R-spondin 1, which is an agonist of Wnt signaling, and insulin in composition of the hIEC differentiation medium 1, expression levels of marker genes related to intestinal epithelial cells were checked through qPCR analysis. Specifically, total RNA and cDNA were prepared using RNeasy kit (Qiagen) and Superscript IV cDNA synthesis kit (Thermo Fisher Scientific Inc.), respectively. qPCR was performed using a 7500 Fast real-time PCR system (Applied Biosystems, Foster City, CA, USA).

Molecule	Papp A→B at 2 h (in vitro) [×10⁻⁶ cm/s]	Papp A→B at 2 h (in vitro; Caco-2) [×10⁻⁶ cm/s]	other results
CCCC(CCC)C(=O)O [valproic acid]	–	–	effect on Wnt pathway and Notch pathway (qPCR of ATOH1, AXIN2, CTNNB1, HES1) [1]: inhibited the Wnt pathway and activated the Notch pathway
insulin: hormone secreted from beta cells of the islet of Langerhans; component of hIEC differentiation medium 1	–	–	effect on expression of intestinal epithelial marker genes (qPCR) (hPSCs): increased expression of VIL1 and ANPEP
Cc1cc(-c2ccc(CC(=O)Nc3ccc(-c4cccnc4)cc3)cc2)ccn1 [Wnt-059, Wnt C-59]	–	–	effect on Wnt pathway and Notch pathway (qPCR of ATOH1, AXIN2, CTNNB1, HES1) [1]: inhibited the Wnt pathway and activated the Notch pathway
R-spondin 1: secreted protein encoded by Rspo1 gene, can promote Wnt/β catenin signals; agonist of Wnt signaling (protein, UniProt Q2MKA7 21-263, looked up) R-spondin-1: SRGIKGKRQRRISAEGSQACAKGCELCSEVNGCLKCSPKLFILLERNDIRQVGVCLPSCPPGYFDARNPDMNKCIKCKIEHCEACFSHNFCTKCKEGLYLHKGRCYPACPEGSSAANGTMECSSPAQCEMSEWSPWGPCSKKQQLCGFRRGSEERTRRVLHAPVGDHAACSDTKETRRCTVRRVPCPEGQKRRKGGQGRRENANRNLARKESKEAGAGSRRRKGQQQQQQQGTVGPLTSAGPA	–	–	effect on expression of intestinal epithelial marker genes (qPCR) (hPSCs): increased expression of markers of major cell types in the intestinal epithelium

Second part, led by results:

Papp A→B at 2 h (in vitro) [×10⁻⁶ cm/s]	Papp A→B at 2 h (in vitro; Caco-2) [×10⁻⁶ cm/s]	Molecule	other results
6.98 ± 0.66	0.98 ± 0.02	CNC(=C[N+](=O)[O-])NCCSCc1ccc(CN(C)C)o1 [ranitidine]	–
11 ± 1.28	32.3 ± 2.61	CC(C)NCC(O)COc1cccc2ccccc12 (centres unmarked) [propranolol]	Fintestine (fraction absorbed in the human intestine) estimated from Papp (Caco-2 cell line): 0.98; Fintestine (fraction absorbed in the human intestine) estimated from Papp (functional hIECs): 0.78
11.1 ± 1.15	36.5 ± 1.09	COCCc1ccc(OCC(O)CNC(C)C)cc1 (centres unmarked) [metoprolol]	–
9.82 ± 0.04	36.2 ± 1.49	O=C(O)Cc1ccccc1Nc1c(Cl)cccc1Cl [diclofenac]	–
